This is an account of results in patent US20240252456A1, “ORAL COMPOSITION, SKIN COSMETIC AND HAIR COSMETIC” (MARUZEN PHARMACEUTICALS CO., LTD., priority 2021, published 2024).

Assay [1] relates to cyclic AMP phosphodiesterase. In words: Cyclic AMP phosphodiesterase activity inhibitory action test. The assay is classed as biochemical. The procedure: To 0.2 mL of 50 mmol/L Tris-HCl buffer solution (pH 7.5) containing 5 mmol/L magnesium chloride, 0.1 mL of 2.5 mg/mL bovine serum albumin solution, 0.1 mL of 0.1 mg/mL cyclic AMP phosphodiesterase solution, and 0.05 mL of the test sample solution (Sample 1, see Table 2 below for final concentration) were added, and the mixture was statically placed at 37° C. for 5 minutes. Then, 0.05 mL of 0.5 mg/mL cyclic AMP solution was added, and the mixture was reacted at 37° C. for 60 minutes. After the reaction was completed, the reaction was stopped by boiling in a boiling water bath for 3 minutes, and then centrifugal separation was applied (2260×g, 10 minutes, 4° C.). Cyclic AMP, a reaction substrate in the supernatant, was analyzed under the following high-performance liquid chromatography conditions. In addition, as a control, the same operation was performed by adding only the solvent to which no sample was added.
• Product name: Chromatocorder 12 (available from SYSTEM INSTRUMENTS) • Stationary phase: Wakosil C18-ODS 5 μm (available from FUJIFILM Wako Pure Chemical Corporation) • Column length: 250 mm • Mobile phase: 1 mmol/L TBAP in 25 mmol/L KH2PO4: CH3CN=90:10 • Mobile phase flow rate: 1.0 mL/min • Detection: 260 nm
Then, a peak area (A) of a cyclic AMP standard product, a peak area (B1) of the supernatant reaction solution of the cyclic AMP standard product and the cyclic AMP phosphodiesterase when no sample was added, and a peak area (B2) of the supernatant reaction solution of the cyclic AMP standard product and the cyclic AMP phosphodiesterase when the test sample was added were obtained. From the obtained results, a decomposition rate (C) of the cyclic AMP standard product when no sample was added and a decomposition rate (D) of the cyclic AMP standard product when the test sample was added were calculated using the following equations.
After that, the cyclic AMP phosphodiesterase activity inhibition rate (%) was calculated from the following equation based on each decomposition rate (C, D) calculated from the above equations.

In the next assay the test system is HAS3 mRNA. Nature of the assay: Hyaluronic acid synthase 3 (HAS3) mRNA expression promotive action test. The assay is classed as cell-based, human. As to conditions: 25 μmol/L; NHEK, 24 hours; A/B×100, corrected with GAPDH. The procedure:
Normal human neonatal epidermal keratinocytes (NHEK) were precultured using normal human epidermal keratinocyte growth medium (KGM), and the cells were collected by a trypsin treatment. The collected cells were diluted with KGM to a cell density of 15×10^4 cells/mL, then seeded with 2 mL portions in a 6-well plate (30×10^4 cells/well), and cultured overnight under conditions of 37° C. and 5% CO2. After culturing, the medium was replaced with normal human epidermal keratinocyte basal medium (KBM, the above KGM without addition of growth additives (hEGF, BPE, insulin, antibacterial agents, hydrocortisone)), and culturing was further performed for 24 hours.
After culturing for 24 hours, the medium was removed, and 2 mL of the test sample (Sample 1, see Table 10 below for final concentration) dissolved in KBM was added to each well, and culturing was performed under conditions of 37° C. and 5% CO2 for 24 hours. As a control, culturing was performed in the same manner using KBM to which no sample was added. After culturing, the medium was removed, total RNA was extracted using ISOGEN II (available from NIPPON GENE CO., LTD.), each RNA amount was measured using a spectrophotometer, and the total RNA was prepared so as to be 150 ng/μL.
For HAS3 and GAPDH as an internal standard, the expression levels of mRNA were measured using the above total RNA as a template. […]

For the next assay, the system named is tyrosinase. In words: Tyrosinase activity inhibitory action test. The assay is classed as biochemical. As for the experimental part:
In a 48-well plate, 0.2 mL of McIlvaine buffer solution (pH 6.8), 0.06 mL of 0.3 mg/mL tyrosine solution, and 0.18 mL of the test sample (Sample 3, see Table 4 below for final concentration) dissolved in 25% DMSO solution were added, and they were statically placed at 37° C. for 10 minutes. To this, 0.02 mL of 1000 units/mL tyrosinase solution was added, followed by reaction at 37° C. for 15 minutes. After the reaction was completed, the absorbance at a wavelength of 475 nm was measured. As a blank, the same operation and absorbance measurement were performed in the case in which no enzyme solution was added. Furthermore, as a control, the same measurement was performed in the case in which 25% DMSO solution was added without adding the sample solution. From the obtained measurement results, the tyrosinase activity inhibition rate (%) was calculated using the following equation. [formula] Terms in the equation represent the following respective ones. • A: Absorbance at wavelength 475 nm with test sample addition and enzyme addition • B: Absorbance at wavelength 475 nm with test sample addition and without enzyme addition • C: Absorbance at wavelength 475 nm without sample addition and with enzyme addition • D: Absorbance at wavelength 475 nm without sample addition and without enzyme addition

The structures appear in SMILES notation.

Turning to `O=C(O)CCc1ccc(O)c(O)c1` [Sample 1, 3,4-Dihydroxyhydrocinnamic acid], the “cAMP phosphodiesterase activity inhibition rate” value in assay [1] (500 μmol/L) was 42.0%; in assay [1] (1000 μmol/L), 46.8%; in assay [1] (2000 μmol/L), 55.3%. Moreover, the “HAS3 mRNA expression promotion rate” value with HAS3 mRNA is 173. 5%.
Take `O=C(O)CCc1ccccc1` [Sample 3, 3-phenylpropionic acid]: the “Tyrosinase activity inhibition rate” value in the assay on tyrosinase (125 μmol/L) is 4.4%; in the assay on tyrosinase (250 μmol/L), 9.6%; in the assay on tyrosinase (500 μmol/L), 15.2%; with tyrosinase (1000 μmol/L), 22.8%.
